Measurements as given in publication PMC10401645 (ACS Chemical Neuroscience, 2023).
pEC50: −log10 of the molar value. Where two headings read alike, the source gives them in different places.

Legend:
5-HT2A receptor = experiment: Bias factor; details: LSD as reference agonist, 2 h AUC; positive = βarr2 preference
5-HT2A [1] = target: T1, 5-HT2A (Homo sapiens, UniProt P28223); experiment: NanoBiT βarr2 recruitment assay at 5-HT2A; details: 2 h AUC; for EC50: β-arrestin2 EC50 (nM) (95% CI)
Target sequence in this assay (P28223 whole entry): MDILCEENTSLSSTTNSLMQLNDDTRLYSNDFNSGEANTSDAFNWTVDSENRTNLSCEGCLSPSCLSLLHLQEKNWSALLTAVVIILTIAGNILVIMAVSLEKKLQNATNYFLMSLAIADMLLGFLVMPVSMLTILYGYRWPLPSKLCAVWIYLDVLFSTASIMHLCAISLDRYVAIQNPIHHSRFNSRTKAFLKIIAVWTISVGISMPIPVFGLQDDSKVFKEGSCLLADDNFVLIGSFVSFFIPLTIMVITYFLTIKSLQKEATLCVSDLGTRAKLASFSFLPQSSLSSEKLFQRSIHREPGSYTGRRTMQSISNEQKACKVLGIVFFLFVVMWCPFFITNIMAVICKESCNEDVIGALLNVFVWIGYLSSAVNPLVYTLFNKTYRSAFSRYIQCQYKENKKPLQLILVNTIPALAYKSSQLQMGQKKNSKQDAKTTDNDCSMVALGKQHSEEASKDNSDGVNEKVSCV
Target sequence in this assay (P32121 whole entry partner): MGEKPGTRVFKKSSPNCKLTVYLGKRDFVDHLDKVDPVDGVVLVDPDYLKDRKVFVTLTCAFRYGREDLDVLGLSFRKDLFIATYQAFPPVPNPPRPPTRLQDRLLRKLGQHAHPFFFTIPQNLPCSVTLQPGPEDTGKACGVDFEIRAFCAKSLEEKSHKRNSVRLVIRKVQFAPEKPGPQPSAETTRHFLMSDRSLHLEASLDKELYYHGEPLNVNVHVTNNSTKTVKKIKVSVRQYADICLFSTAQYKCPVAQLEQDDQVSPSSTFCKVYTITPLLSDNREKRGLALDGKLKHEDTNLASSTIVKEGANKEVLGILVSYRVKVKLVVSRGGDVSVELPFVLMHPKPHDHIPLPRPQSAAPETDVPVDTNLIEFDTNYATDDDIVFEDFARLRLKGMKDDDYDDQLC

5-HT2A [2] = target: T1, 5-HT2A; experiment: NanoBiT miniGαq recruitment assay at 5-HT2A; details: 2 h AUC; for EC50: miniGαq EC50 (nM) (95% CI); for EC50 / pEC50: LSD as reference agonist; for pEC50: miniGαq pEC50 (95% CI)
Target sequence in this assay (P28223 whole entry): as the sequence (P28223 whole entry) above

5-HT2A [3] = target: T1, 5-HT2A; details: PI hydrolysis assay; cited from earlier work
Target sequence in this assay (P28223 whole entry, species assumed): as the sequence (P28223 whole entry) above
Target sequence in this assay (P32121 whole entry partner, species assumed): as the sequence (P32121 whole entry partner) above

SMILES	β (bias factor) (5-HT2A receptor)	EC50 (5-HT2A [1]; LSD as reference agonist) [nM]	EC50 (5-HT2A [2]) [nM]	pEC50 (5-HT2A [2])	β-arrestin2 EC50 (nM) (95% CI) (5-HT2A [1]; LSD as reference agonist)	EC50 (5-HT2A [3])	β-arrestin2 Emax (%) (95% CI) (5-HT2A [1]; normalized to Emax of LSD)	miniGαq Emax (%) (95% CI) (5-HT2A [2]; normalized to Emax of LSD)
CCOCc1cc(OC)c(CCN)cc1OC.Cl [1d, 2-(4-(Ethoxymethyl)-2,5-dimethoxyphenyl)ethan-1-amine Hydrochloride]	0.323	26.4	75	–	–	–	–	–
COc1cc(CCN)c(OC)cc1C#N.Cl [2C-CN (1j), 4-(2-Aminoethyl)-2,5-dimethoxybenzonitrile Hydrochloride]	0.412	174	503	–	–	–	–	–
COc1cc(CCN)c(OC)cc1C.Cl [2C-D (1b), 2-(2,5-Dimethoxy-4-methylphenyl)ethan-1-amine Hydrochloride]	0.372	16.4	59.4	–	–	–	–	–
COc1cc([N+](=O)[O-])c(OC)cc1CCN.Cl [2C-N (1g), 2-(2,5-Dimethoxy-4-nitrophenyl)ethan-1-amine Hydrochloride]	0.305	32.2	92.5	–	–	–	–	–
CCCc1cc(OC)c(CCN)cc1OC.Cl [2C-P (1c), 2-(2,5-Dimethoxy-4-propylphenyl)ethan-1-amine Hydrochloride]	0.313	10.2	37.6	7.43	–	–	–	–
COc1cc(SC)c(OC)cc1CCN.Cl [2C-T (1e), 2-(2,5-Dimethoxy-4-(methylthio)phenyl)ethan-1-amine Hydrochloride]	0.343	13.1	37.1	–	–	–	–	–
CCCSc1cc(OC)c(CCN)cc1OC.Cl [2C-T-7 (1f), 2-(2,5-Dimethoxy-4-(propylthio)phenyl)ethan-1-amine Hydrochloride]	0.291	4.99	14.3	7.85	–	–	–	–
NCCc1c[nH]c2ccc(O)cc12 [5-HT, 5-hydroxytryptamine, reference compound]	0.680	–	–	–	–	–	–	–
COc1cc([N+](=O)[O-])c(OC)cc1CCNCc1ccccc1F.Cl [25N-NBF (2g), 2-(2,5-Dimethoxy-4-nitrophenyl)-N-(2-fluorobenzyl)ethan-1-amine Hydrochloride]	0.858	14.2	74.7	–	–	–	–	–
COc1cc([N+](=O)[O-])c(OC)cc1CCNCc1cccc2c1OCO2.Cl [25N-NBMD (2h), N-(Benzo[d][1,3]dioxol-4-ylmethyl)-2-(2,5-dimethoxy-4-nitrophenyl)ethan-1-amine Hydrochloride]	0.791	2	9.32	–	–	–	–	–
COc1cc([N+](=O)[O-])c(OC)cc1CCNCc1ccccc1O.Cl [25N-NBOH (2e), 2-(((2,5-Dimethoxy-4-nitrophenethyl)amino)methyl)phenol Hydrochloride]	0.454	0.662	1.73	–	sub-nanomolar	–	–	–
COc1cc([N+](=O)[O-])c(OC)cc1CCNCc1ccccc1OC.Cl [25N-NBOMe (2f), 2-(2,5-Dimethoxy-4-nitrophenyl)-N-(2-methoxybenzyl)ethan-1-amine Hydrochloride]	0.374	1.09	2.53	–	–	sub-nanomolar	–	–
CCCSc1cc(OC)c(CCNCc2ccccc2O)cc1OC.Cl [25T7-NBOH (2c), 2-(((2,5-Dimethoxy-4-(propylthio)phenethyl)amino)methyl)phenol Hydrochloride]	0.209	13.9	17.5	–	–	–	–	–
CCCSc1cc(OC)c(CCNCc2ccccc2OC)cc1OC.Cl [25T7-NBOMe (2d), 2-(2,5-Dimethoxy-4-(propylthio)phenyl)-N-(2-methoxybenzyl)ethan-1-amine Hydrochloride]	0.281	7.42	11.3	–	–	–	–	–
COc1cc(SC)c(OC)cc1CCNCc1ccccc1O.Cl [25T-NBOH (2a), 2-(((2,5-Dimethoxy-4-(methylthio)phenethyl)amino)methyl)phenol Hydrochloride]	0.447	1.94	4.45	–	–	–	–	–
COc1cc(SC)c(OC)cc1CCNCc1ccccc1OC.Cl [25T-NBOMe (2b), 2-(2,5-Dimethoxy-4-(methylthio)phenyl)-N-(2-methoxybenzyl)ethan-1-amine Hydrochloride]	0.332	2.05	4.22	–	–	–	–	–
COc1cc(SC)c(OC)cc1CC(C)N.Cl (centres unmarked) [DOT (1h), 1-(2,5-Dimethoxy-4-(methylthio)phenyl)propan-2-amine Hydrochloride]	0.436	14.5	65.8	–	–	–	–	–
CCCSc1cc(OC)c(CC(C)N)cc1OC.Cl (centres unmarked) [DOT-7 (1i), 1-(2,5-Dimethoxy-4-(propylthio)phenyl)propan-2-amine Hydrochloride]	0.305	2.18	7.63	–	–	–	–	–
CCN(CC)C(=O)[C@@H]1C=C2c3cccc4[nH]cc(c34)C[C@H]2N(C)C1 [LSD, lysergic acid diethylamide, reference compound]	0	–	–	–	–	–	99.4 (92.5–106) %	98.4 (90.4–107) %
